Experimental data: patent US9351974B2, “Substituted pteridinones for the treatment of cancer” (OSI Pharmaceuticals, LLC, priority 2011, dated 2016)

molecular target: T1, His-tagged full-length RSK2 (RPS6KA3) (Homo sapiens, UniProt P51812); experiment: RSK2 Omnia Assay for compound IC50 determination; assay type: biochemical; settings: ATP 15 μM, n=2, read-out: Mean RSK2 Biochem IC50
T1 construct: His-tagged full-length RSK2 (RPS6KA3, Invitrogen PV3323); His; purchased Invitrogen PV3323
Outline: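 Continuous fluorescence assay (ex 360/em 485 nm) of SOX-peptide (Omnia ST Peptide 6, 5 μM) phosphorylation with ATP 15 μM (Km 16.3 μM). Enzyme was […], in pH 7.5 HEPES/MgCl2 buffer with 1% DMSO. IC50 came from 11-point threefold dilutions ([…]) by four-parameter fit of initial slopes, in duplicate; Ki by Cheng-Prusoff assuming competitive inhibition.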

T1 sequence (P51812 whole entry): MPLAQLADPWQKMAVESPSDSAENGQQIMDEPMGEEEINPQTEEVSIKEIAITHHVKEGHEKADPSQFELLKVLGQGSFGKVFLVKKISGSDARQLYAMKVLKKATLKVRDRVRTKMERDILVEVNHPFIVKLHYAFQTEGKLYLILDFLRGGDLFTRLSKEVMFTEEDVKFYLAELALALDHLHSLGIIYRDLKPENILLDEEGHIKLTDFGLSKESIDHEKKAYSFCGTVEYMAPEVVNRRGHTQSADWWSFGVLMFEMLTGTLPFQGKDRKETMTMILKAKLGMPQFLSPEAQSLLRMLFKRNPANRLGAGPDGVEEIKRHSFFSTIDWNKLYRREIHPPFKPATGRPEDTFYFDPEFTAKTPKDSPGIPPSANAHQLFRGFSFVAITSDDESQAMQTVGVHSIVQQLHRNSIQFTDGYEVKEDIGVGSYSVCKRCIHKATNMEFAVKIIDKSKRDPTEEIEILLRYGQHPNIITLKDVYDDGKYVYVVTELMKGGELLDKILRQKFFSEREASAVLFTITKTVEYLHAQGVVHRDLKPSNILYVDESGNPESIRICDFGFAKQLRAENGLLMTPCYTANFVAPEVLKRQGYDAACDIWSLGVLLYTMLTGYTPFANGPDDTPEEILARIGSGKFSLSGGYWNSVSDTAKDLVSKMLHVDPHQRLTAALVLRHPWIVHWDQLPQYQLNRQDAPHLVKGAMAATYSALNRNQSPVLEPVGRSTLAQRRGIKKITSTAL

SMILES	IC50 [µM]
COc1c(Nc2ncc3c(n2)N(C2CCCCC2)[C@H](C)C(=O)N3c2cccc(C#N)c2)ccc2[nH]ncc12 [compound 102, 3-[(7R)-8-cyclohexyl-2-[(4-methoxy-1H-indazol-5-yl)amino]-7-methyl-6-oxo-7,8-dihydropteridin-5(6H)-yl]benzonitrile]	0.1 to 1
Cc1c(Nc2ncc3c(n2)N(C2CCCCC2)[C@H](C)C(=O)N3c2cccc(C#N)c2)ccc2[nH]ncc12 [compound 117, 3-[(7R)-8-cyclohexyl-7-methyl-2-[(4-methyl-1H-indazol-5-yl)amino]-6-oxo-7,8-dihydropteridin-5(6H)-yl]benzonitrile]	0.1 to 1
CC(C)N1c2nc(Nc3ccc4[nH]ncc4c3)ncc2N(c2ccccc2)C(=O)C1C (centres unmarked) [Example 13, 2-(1H-indazol-5-ylamino)-7-methyl-5-phenyl-8-(propan-2-yl)-7,8-dihydropteridin-6(5H)-one]	0.1 to 1
COc1cc2[nH]ncc2cc1Nc1ncc2c(n1)N(C1CCCCC1)[C@H](C)C(=O)N2c1cccc(C#N)c1 [compound 119, 3-[(7R)-8-cyclohexyl-2-[(6-methoxy-1H-indazol-5-yl)amino]-7-methyl-6-oxo-7,8-dihydropteridin-5(6H)-yl]benzonitrile]	> 1
CO[C@H]1CC[C@H](N2c3nc(Nc4cc5cn[nH]c5cn4)ncc3N(c3cccc(C#N)c3)C(=O)[C@H]2C)CC1 [compound 230, 3-[(7R)-8-(trans-4-methoxycyclohexyl)-7-methyl-6-oxo-2-(1H-pyrazolo[3,4-c]pyridin-5-ylamino)-7,8-dihydropteridin-5(6H)-yl]benzonitrile]	0.1 to 1
C[C@@H]1C(=O)N(c2cccnc2)c2cnc(Nc3cc(F)c4[nH]ncc4c3)nc2N1[C@H]1CC[C@H](C(F)(F)F)CC1 [compound 256]	≤ 0.1
COc1n[nH]c2ccc(Nc3ncc4c(n3)N(C3CCCCC3)[C@H](C)C(=O)N4c3cccc(C#N)c3)cc12 [compound 116, 3-[(7R)-8-cyclohexyl-2-[(3-methoxy-1H-indazol-5-yl)amino]-7-methyl-6-oxo-7,8-dihydropteridin-5(6H)-yl]benzonitrile]	≤ 0.1
C[C@@H]1C(=O)N(c2cc(F)cc(C#N)c2)c2cnc(Nc3ccc4[nH]ncc4c3)nc2N1C1CCCCC1 [compound 112, 3-[(7R)-8-cyclohexyl-2-(1H-indazol-5-ylamino)-7-methyl-6-oxo-7,8-dihydropteridin-5(6H)-yl]-5-fluorobenzonitrile]	≤ 0.1
COc1ccc(N2C(=O)[C@@H](C)N(C3CCCCC3)c3nc(Nc4ccc5[nH]ncc5c4)ncc32)cc1 [Example 26, (7R)-8-cyclohexyl-2-(1H-indazol-5-ylamino)-5-(4-methoxyphenyl)-7-methyl-7,8-dihydropteridin-6(5H)-one]	≤ 0.1
C[C@@H]1C(=O)N(c2cccc(C#N)c2)c2cnc(Nc3ccc4[nH]ncc4c3)nc2N1CC1CC(F)(F)C1 [Example 83, 3-[(7R)-8-[(3,3-difluorocyclobutyl)methyl]-2-(1H-indazol-5-ylamino)-7-methyl-6-oxo-7,8-dihydropteridin-5(6H)-yl]benzonitrile]	≤ 0.1
C[C@@H]1C(=O)N(c2cccnc2)c2cnc(Nc3cnc4[nH]ncc4c3)nc2N1C1CCCCC1 [compound 154, (7R)-8-cyclohexyl-7-methyl-2-(1H-pyrazolo[3,4-b]pyridin-5-ylamino)-5-(pyridin-3-yl)-7,8-dihydropteridin-6(5H)-one]	≤ 0.1
C[C@@H]1C(=O)N(c2ccc(N3CCN(C)CC3)c(C#N)c2)c2cnc(Nc3cc(F)c4[nH]ncc4c3)nc2N1C1CCOCC1 [compound 206, 5-[(7R)-2-[(7-fluoro-1H-indazol-5-yl)amino]-7-methyl-6-oxo-8-(tetrahydro-2H-pyran-4-yl)-7,8-dihydropteridin-5(6H)-yl]-2-(4-methylpiperazin-1-yl)benzonitrile]	≤ 0.1
C[C@@H]1C(=O)N(c2cc(F)cc(F)c2)c2cnc(Nc3ccc4[nH]ncc4c3)nc2N1C1CCCCC1 [compound 95, (7R)-8-cyclohexyl-5-(3,5-difluorophenyl)-2-(1H-indazol-5-ylamino)-7-methyl-7,8-dihydropteridin-6(5H)-one]	≤ 0.1
CC[C@@H]1C(=O)N(c2cccc(C(F)(F)F)c2)c2cnc(Nc3cc(F)c4[nH]ncc4c3)nc2N1C1CCCCC1 [compound 291, (7R)-8-cyclohexyl-7-ethyl-2-[(7-fluoro-1H-indazol-5-yl)amino]-5-[3-(trifluoromethyl)phenyl]-7,8-dihydropteridin-6(5H)-one]	≤ 0.1
COc1ccc(N2C(=O)[C@@H](C)N(CCC(C)C)c3nc(Nc4cc(F)c5[nH]ncc5c4)ncc32)cc1C#N [Example 91, 5-[(7R)-2-[(7-fluoro-1H-indazol-5-yl)amino]-7-methyl-8-(3-methylbutyl)-6-oxo-7,8-dihydropteridin-5(6H)-yl]-2-methoxybenzonitrile]	≤ 0.1
C[C@@H]1C(=O)N(c2cccc(C#N)c2)c2cnc(Nc3ccc4sncc4c3)nc2N1C1CCCCC1 [compound 109, 3-[(7R)-2-(1,2-benzothiazol-5-ylamino)-8-cyclohexyl-7-methyl-6-oxo-7,8-dihydropteridin-5(6H)-yl]benzonitrile]	0.1 to 1

More lines, now with the values ahead:

IC50 [µM]	SMILES
≤ 0.1	C[C@@H]1C(=O)N(c2cccc(C#N)c2)c2cnc(Nc3cc(F)c(O)c(F)c3)nc2N1C1CCCCC1 [compound 158, 3-[(7R)-8-cyclohexyl-2-[(3,5-difluoro-4-hydroxyphenyl)amino]-7-methyl-6-oxo-7,8-dihydropteridin-5(6H)-yl]benzonitrile]
≤ 0.1	COc1ccc(N2C(=O)[C@@H](C)N(C3CCCCC3)c3nc(Nc4ccc5[nH]ncc5c4)ncc32)cn1 [Example 48, (7R)-8-cyclohexyl-2-(1H-indazol-5-ylamino)-5-(6-methoxypyridin-3-yl)-7-methyl-7,8-dihydropteridin-6(5H)-one]
≤ 0.1	Cc1ccc(N2C(=O)[C@@H](C)N(C3CCCCC3)c3nc(Nc4ccc5[nH]ncc5c4)ncc32)cc1C#N [Example 53, 5-[(7R)-8-cyclohexyl-2-(1H-indazol-5-ylamino)-7-methyl-6-oxo-7,8-dihydropteridin-5(6H)-yl]-2-methylbenzonitrile]
≤ 0.1	C[C@@H]1C(=O)N(c2ccc(C(F)(F)F)cc2)c2cnc(Nc3ccc4[nH]ncc4c3)nc2N1C1CCCCC1 [Example 35, (7R)-8-cyclohexyl-2-(1H-indazol-5-ylamino)-7-methyl-5-[4-(trifluoromethyl)phenyl]-7,8-dihydropteridin-6(5H)-one]
≤ 0.1	C[C@@H]1C(=O)N(c2cccc(C#N)c2)c2cnc(Nc3ccc4[nH]ncc4c3)nc2N1CC1CCOCC1 [Example 80, 3-[(7R)-2-(1H-indazol-5-ylamino)-7-methyl-6-oxo-8-(tetrahydro-2H-pyran-4-ylmethyl)-7,8-dihydropteridin-5(6H)-yl]benzonitrile]
≤ 0.1	C[C@@H]1C(=O)N(c2ccc3ccccc3c2)c2cnc(Nc3ccc4[nH]ncc4c3)nc2N1C1CCCCC1 [Example 45, (7R)-8-cyclohexyl-2-(1H-indazol-5-ylamino)-7-methyl-5-(naphthalen-2-yl)-7,8-dihydropteridin-6(5H)-one]
≤ 0.1	C[C@@H]1C(=O)N(c2ccc(N3CCN(C)CC3)c(C#N)c2)c2cnc(Nc3cc(F)c4[nH]ncc4c3)nc2N1[C@H]1CC[C@H](C)CC1 [compound 251, 5-[(7R)-2-[(7-fluoro-1H-indazol-5-yl)amino]-7-methyl-8-(trans-4-methylcyclohexyl)-6-oxo-7,8-dihydropteridin-5(6H)-yl]-2-(4-methylpiperazin-1-yl)benzonitrile]
≤ 0.1	COc1ccc(N2C(=O)[C@@H](C)N(C3CCCCC3)c3nc(Nc4ccc5[nH]ncc5c4)ncc32)cc1F [Example 55, (7R)-8-cyclohexyl-5-(3-fluoro-4-methoxyphenyl)-2-(1H-indazol-5-ylamino)-7-methyl-7,8-dihydropteridin-6(5H)-one]
≤ 0.1	C[C@@H]1C(=O)N(c2cccnc2)c2cnc(Nc3cc(F)c4[nH]ncc4c3)nc2N1C1CCOCC1 [compound 191, (7R)-2-[(7-fluoro-1H-indazol-5-yl)amino]-7-methyl-5-(pyridin-3-yl)-8-(tetrahydro-2H-pyran-4-yl)-7,8-dihydropteridin-6(5H)-one]
≤ 0.1	C[C@@H]1C(=O)N(c2cccc(C#N)c2)c2cnc(Nc3cc(F)c4[nH]ncc4c3F)nc2N1C1CCCCC1 [compound 130, 3-[(7R)-8-cyclohexyl-2-[(4,7-difluoro-1H-indazol-5-yl)amino]-7-methyl-6-oxo-7,8-dihydropteridin-5(6H)-yl]benzonitrile]
≤ 0.1	COc1ccc(N2C(=O)[C@@H](C)N([C@H]3CC[C@H](OC)CC3)c3nc(Nc4ccc5[nH]c(=O)oc5c4)ncc32)cc1C#N [compound 235, 2-methoxy-5-[(7R)-8-(trans-4-methoxycyclohexyl)-7-methyl-6-oxo-2-[(2-oxo-2,3-dihydro-1,3-benzoxazol-6-yl)amino]-7,8-dihydropteridin-5(6H)-yl]benzonitrile]
≤ 0.1	CCOc1ccc(N2C(=O)[C@@H](C)N(C3CCC(F)(F)CC3)c3nc(Nc4cc(F)c5[nH]c(=O)oc5c4)ncc32)cc1C#N [compound 280, 5-[(7R)-8-(4,4-difluorocyclohexyl)-2-[(4-fluoro-2-oxo-2,3-dihydro-1,3-benzoxazol-6-yl)amino]-7-methyl-6-oxo-7,8-dihydropteridin-5(6H)-yl]-2-ethoxybenzonitrile]
≤ 0.1	C[C@@H]1C(=O)N(c2cccnc2)c2cnc(Nc3cc(F)c4[nH]ncc4c3)nc2N1[C@H]1CC[C@@H](C(F)(F)F)CC1 [compound 255, (7R)-2-[(7-fluoro-1H-indazol-5-yl)amino]-7-methyl-5-(pyridin-3-yl)-8-[cis-4-(trifluoromethyl)cyclohexyl]-7,8-dihydropteridin-6(5H)-one]
